Consider seven compounds from patent US20150242566A1, “Methods and Systems for Designing Animal Food Compositions” (Hill's Pet Nutrition, Inc., priority 2005, published 2015).

This test has as its system gene expression in four canine cell lines: CCL34 (kidney), CRL1430 (thymus), CCL183 (bone), CTAC (thyroid). The experiment in a line: Effect of test substances or ingredients on gene expression in canine cell lines (Affymetrix Canine-1 and Canine-2 gene chips). It counts as cell-based. Conditions: for Direction of gene expression, probe 1605486_at: pyruvate dehydrogenase kinase 4 mRNA; for Direction of gene expression, probe 1605486_at / Direction of gene expression, probe 6282824_at: two concentrations per ingredient (Table 6), vs solvent control; for Direction of gene expression, probe 6282824_at: Canis familiaris carnitine palmitoyl transferase I isoform (CPT1) mRNA, human BC000185; for Direction of gene expression, probe 6283403_at: Sus scrofa carnitine palmitoyltransferase I mRNA, human AK172798. An excerpt:
Cells cultured from mammalian cell lines are used to isolate good quality RNA which is then used for future downstream genomic analysis. All work related to the culturing of the cells is to be done under strict aseptic conditions. Procedure: Removing Cells from the OptiCell Chamber (proceed one OptiCell at a time). Check the cells under a microscope to ensure that the cells are alive before isolating RNA. Remove and discard the cell culture medium. Using the OptiCell knife cut away the top membrane exposing the cells on the lower membrane. Wash the membrane to which the cells are attached three times with 1X PBS. Pipette 600 uL of the Buffer RLT solution (containing R-Mercaptoethanol) onto the center of the membrane to which the cells are attached. Using the cell scraper, gently spread the Buffer RLT over the entire surface of the membrane, and then collect the liquid in one corner. Pipette off the entire volume of Buffer RLT and place into a QIAshredder spin column. RNA Isolation: Centrifuge the QIAshredder spin columns at 14,000 rpm for 2 minutes. Discard the spin column but keep the collection tube and its contents. Add 600 uL of 70% ethanol to the collection tube and mix well by pipetting (the total volume now=1.2 mL). Transfer 600 uL of the cell lysate to an RNeasy mini column and centrifuge for 15 seconds at 14,000 rpm. Discard the flow through but keep the collection tube and the spin column. Transfer the remaining volume of cell lysate (˜600 uL) to the spin column and repeat the centrifugation. Discard the flow through but keep the collection tube and the spin column. Add 700 uL Buffer RW1 to the spin column. Centrifuge for 15 seconds at 14,000 rpm to wash the column. Discard the flow through and the collection tube. Transfer the spin column to a new 2 mL collection tube and add 500 uL Buffer RPE to the column. Centrifuge for 15 seconds at 14,000 rpm. Discard the flow through, keep the collection tube/column. Add another 500 uL Buffer RPE to the column. Centrifuge for 2 minutes at 14,000 rpm. Transfer the spin column to a 1.5 mL collection tube. […] Store the final RNA at −70° C. Gene expression was analyzed using Affymetrix Canine 1 and Canine 2 GeneChip® Arrays available commercially from Affymetrix, Inc., Santa Clara, Calif. 95051. Total RNA is reverse transcribed into cDNA. The cDNA is used to generate cRNA which is fragmented and used as probes for GeneChip hybridization. The gene chip is washed and the hybridization signal is measured with an Affymetrix laser scanner. The hybridization data is then validated and normalized for further analysis. Procedure: All procedures follow exactly as described in GeneChip Expression Analysis Technical Manual (Affymetrix Copyright 1999-2003). Use 5 microgram of total RNA for the first strand cDNA synthesis. Use either Peltier Thermal Cycler PTC-200 or heat block for temperature control on reactions and probe denaturing. The quality control is performed using RNA […] chips with BioAnalyer 2100. Use 100 Format (Midi Array) for the canine genechip. […] TAGs; ALA: EPA: DHA; linoleic acid; stearic acid (SA), conjugated linoleic acid (CLA), GLA; arachidonic acid; lecithin; vitamin A, vitamin D, vitamin E, vitamin K, riboflavin, niacin, pyridoxine, pantothenic acid, folic acid, biotin vitamin C, catechin, quercetin, theaflavin; ubiquinone: lycopene, lycoxanthin; resveratrol; α-lipoic acid; L-carnitine; D-limonene; glucosamine; S-adenosylmethionine; chitosan, various materials containing one or more of these compounds, and various combination thereof on gene expression in four canine cell lines and appropriate controls. The solvent at the higher of the two concentrations was used as a control. Four canine cell lines are used: CCL34 (kidney), CRL1430 (thymus), CCL183 (bone) (Obtained from The American Tissue Culture Collection) and CTAC (thyroid) (See, Measurement of NK Activity in Effector Cells Purified from Canine Peripheral Lymphocytes. Veterinary Immunology and Immunopathology, 35 (1993) 239-251). […]

In the case of `CC/C=C\C/C=C\C/C=C\CCCCCCCC(=O)O` [ALA, α-linolenic acid], where the note is “Canis familiaris type I collagen pre-pro-alpha1(I) chain (COL1A1) mRNA, human AB209597”, the “Direction of gene expression, probe 6282455_at” value is recorded as “DOWN (down-regulated if its value is <1/1.5 (for across all 4 cell lines analysis) or <½ (for within cell lines analysis))”. For the same compound, the “Direction of gene expression, probe 1605486_at” value (“Direction … probe 1605486_at” below) (human AK096428) was “UP (up-regulated if it is >1.5 (for across all 4 cell lines analysis) or >2 (for within cell lines analysis))”.
Consider `CCCCC/C=C\C/C=C\C/C=C\C/C=C\CCCC(=O)O` [ARA, arachidonic acid], for which the “Direction of gene expression, probe 6282824_at” value (from here on “Direction … probe 6282824_at”) was “UP (up-regulated if it is >1.5 (for across all 4 cell lines analysis) or >2 (for within cell lines analysis))” and the “Direction of gene expression, probe 6283403_at” value is reported as “UP (up-regulated if it is >1.5 (for across all 4 cell lines analysis) or >2 (for within cell lines analysis))”. Besides, the “Direction of gene expression, probe 1602749_at” value (Homo sapiens BAC clone RP11-44D21 from 4, human AC108866) was “UP (up-regulated if it is >1.5 (for across all 4 cell lines analysis) or >2 (for within cell lines analysis))”. Also, the “Direction … probe 1605486_at” value (human AK096428) was “UP (up-regulated if it is >1.5 (for across all 4 cell lines analysis) or >2 (for within cell lines analysis))”.
Consider `CC/C=C\C/C=C\C/C=C\C/C=C\C/C=C\C/C=C\CCC(=O)O` [DHA, docosahexaenoic acid], for which the “Direction … probe 6282824_at” value is recorded as “UP (up-regulated if it is >1.5 (for across all 4 cell lines analysis) or >2 (for within cell lines analysis))”. For the same compound, the “Direction of gene expression, probe 6287734_at” value (Canis familiaris similar to Na/Pi cotransporter 4 (LOC478741) mRNA, human BC017952) is “UP (up-regulated if it is >1.5 (for across all 4 cell lines analysis) or >2 (for within cell lines analysis))”. The “Direction … probe 1605486_at” value (human AK096428) is given as “UP (up-regulated if it is >1.5 (for across all 4 cell lines analysis) or >2 (for within cell lines analysis))”.
Consider `CC/C=C\C/C=C\C/C=C\C/C=C\C/C=C\CCCC(=O)O` [EPA, eicosapentaenoic acid], for which the “Direction of gene expression, probe 6283403_at” value is on record as “UP (up-regulated if it is >1.5 (for across all 4 cell lines analysis) or >2 (for within cell lines analysis))”. The “Direction … probe 1605486_at” value (human AK096428) is “UP (up-regulated if it is >1.5 (for across all 4 cell lines analysis) or >2 (for within cell lines analysis))”. Moreover, the “Direction of gene expression, probe 6283329_at” value (similar to secreted frizzled-related protein 4, human AC018634) is reported as “DOWN (down-regulated if its value is <1/1.5 (for across all 4 cell lines analysis) or <½ (for within cell lines analysis))”.
Regarding `CCCCC/C=C\C/C=C\CCCCCCCC(=O)O` [LA, linoleic acid], the “Direction … probe 6282824_at” value is “UP (up-regulated if it is >1.5 (for across all 4 cell lines analysis) or >2 (for within cell lines analysis))”. In addition, for the setting “Canis familiaris Na+-dependent glutamate transporter (GLAST) mRNA, human D26443”, the “Direction of gene expression, probe 6282385_at” value was “DOWN (down-regulated if its value is <1/1.5 (for across all 4 cell lines analysis) or <½ (for within cell lines analysis))”. The “Direction … probe 1605486_at” value (human AK096428) was “UP (up-regulated if it is >1.5 (for across all 4 cell lines analysis) or >2 (for within cell lines analysis))”.
As to `CCCCCCCCCCCCCCCCCC(=O)O` [SA, stearic acid], the “Direction of gene expression, probe CfaAffx.9845.1.S1_s_at” value (Canis familiaris similar to leucine rich repeat containing 45 (LOC483375), human NM_144999) is “UP (up-regulated if it is >1.5 (for across all 4 cell lines analysis) or >2 (for within cell lines analysis))”. In addition, the “Direction of gene expression, probe Cfa.2282.1.S1_at” value (Canis familiaris similar to pyruvate dehydrogenase kinase isoform 4 (LOC482310) mRNA, human AK096428) is “UP (up-regulated if it is >1.5 (for across all 4 cell lines analysis) or >2 (for within cell lines analysis))”. The “Direction of gene expression, probe Cfa.791.4.A1_at” value (Canis familiaris similar to ribosomal protein L24, transcript variant 2 (LOC478547), human NM_000986) is listed as “UP (up-regulated if it is >1.5 (for across all 4 cell lines analysis) or >2 (for within cell lines analysis))”.
As to conjugated linoleic acid [CLA], the “Direction of gene expression, probe Cfa.10478.1.A1_at” value (Bos taurus similar to Type II inositol-1,4,5-trisphosphate 5-phosphatase precursor (LOC538291), human AC005691) is “UP (up-regulated if it is >1.5 (for across all 4 cell lines analysis) or >2 (for within cell lines analysis))”. Further, the “Direction of gene expression, probe Cfa.11267.1.A1_at” value (Homo sapiens cDNA clone IMAGE: 4456146, human BC024645) is given as “DOWN (down-regulated if its value is <1/1.5 (for across all 4 cell lines analysis) or <½ (for within cell lines analysis))”. Also, for the setting “Homo sapiens solute carrier family 20 (phosphate transporter), member 2 (SLC20A2) mRNA, human AF170802”, the “Direction of gene expression, probe Cfa.11358.1.A1_at” value is on record as “UP (up-regulated if it is >1.5 (for across all 4 cell lines analysis) or >2 (for within cell lines analysis))”.
